# Data: paper PMC6687188, “Novel lactate dehydrogenase inhibitors with in vivo efficacy against Cryptosporidium parvum” (PLoS Pathogens, 2019)
# Target: recombinant CpLDH protein (Cryptosporidium parvum, UniProt Q9GT92, F198L/K295E/R251K)
# Settings: not given
row,Compound,MEAN CpLDH INHIBITION (%)
1,CC1CCC2(OC1)OC1CC3C4CC=C5CC(OC6OC(CO)C(OC7OC(C)C(OC8OC(C)C(O)C(O)C8O)C(O)C7O)C(O)C6OC6OC(C)C(O)C(O)C6O)CCC5(C)C4CCC3(C)C1C2C (centres unmarked) [NSC306864],-7.27
2,O=NN(CCCl)C(=O)NCc1ccc[n+]([O-])c1 [NSC307454],-54.21
3,C=C(C)[C@@H]1CCc2c(O)c(O)c(=O)cc(C)c2C1 [NSC310618],-54.97
4,CC(=O)[O-].Cc1c2cc[n+](CCN3CCCCC3)cc2c(C)c2c1[nH]c1ccc(O)cc12 [NSC311153],-30.69
5,CCP(CC)CC.[Au+].[Cl-] [NSC313981],-27.27
6,COc1cc2c3c(n(C)c(=O)c2cc1OC)-c1cc2c(cc1C3=O)OCO2 [NSC314622],-4.47
7,O=C1c2ccccc2C(=O)c2c(O)c(NCCNCCO)cc(O)c21 [NSC316157],-4.71
8,O=C(N=Nc1c(O)[nH]c2c(Cl)cc(Cl)cc12)c1ccccc1O [NSC320864],-26.08
9,COc1ccc2c(c1[N+](=O)[O-])CC[C@@H]1[C@@H]2CC[C@]2(C)C(=O)CC[C@@H]12 [NSC321803],-29.51
10,Br.CCCCCC(CN1CCOCC1)C(=O)/C=C/c1ccccc1 (centres unmarked) [NSC322069],-28.89
11,C/C(=N\N=C(/[Se])N1CC2CCC(CC2)C1)c1ccccn1 [NSC323241],-23.75
12,CCCCS(=N)(=O)CCC(N)C(=O)O (centres unmarked) [NSC326231],-24.75
13,Clc1cc2nc[nH]c2cc1Cl [NSC326397],-5.75
14,CN(C)c1ccc(/C=N/N=C2\C(=O)Nc3c(Cl)cc(Cl)cc32)cc1 [NSC327697],-11.09
15,CC1CCOC(=O)/C=C/C=C/C(=O)OC2CC3OC4C5OC5(C)C(O)CC4(COC(=O)C1O)C2(C)C31CO1 (centres unmarked) [NSC328166],-4.71
16,CC(=O)O[C@@H]1[C@@H](O)[C@H](O[C@H]2[C@H](OC(=O)[C@H]3CC[C@H]4[C@@H](C3)O[C@@]3(C[C@H](OC(=O)/C=C/c5ccccc5)[C@H](C)CO3)[C@]43CO3)O[C@H](C)[C@@H](O)[C@@H]2OC(C)=O)O[C@H](C)[C@H]1O [NSC328426],-30.81
17,Cc1c(Cl)cccc1NC(=O)c1cccc([N+](=O)[O-])c1O [NSC328477],-31.70
18,CC1(C)CC2=NO[Se]3=C2C(=NO3)C1 [NSC328587],-53.59
19,CCOc1cccc(/C=N/N=C2\C(=O)Nc3c(Cl)cc(Cl)cc32)c1O [NSC329277],-1.09
20,O=C1Nc2c(Cl)cc(Cl)cc2/C1=N/N=C/c1ccco1 [NSC329279],-39.07
21,C=C1C(=O)O[C@H]2/C=C(/C)C(=O)C[C@@H]3OC(C)(C)O[C@@]3(C)C[C@H](OC(=O)/C(C)=C\C)[C@H]12 [NSC329696],-30.73
22,COC1CC(C)C(OC)c2cc(O)cc(c2O)NC(=O)/C(C)=C\C=C/C(C)C(OC(N)=O)/C(C)=C\C(C)C1OC (centres unmarked) [NSC330500],-19.04
23,COc1cc2c(c(O)c1OC)-c1c(cc(OC)c(OC)c1OC)C[C@@H](C)[C@@H](C)C2 [NSC330515],-43.86
24,COc1cc2c(c(OC)c1OC)-c1c(cc3c(c1OC)OCO3)CC(C)C(C)(O)C2OC(=O)c1ccccc1 (centres unmarked) [NSC330516],-37.93
25,CC(=O)O[C@H]1C(=O)[C@@]2(C)[C@H]([C@H](OC(=O)c3ccccc3)[C@]3(O)C[C@H](O)C(C)=C1C3(C)C)[C@]1(OC(C)=O)CO[C@@H]1C[C@@H]2O [NSC330753],-63.01

row,Compound,MEAN CpLDH INHIBITION (%)
1,CCOC(=O)Nc1cc2c(c(N)n1)N=C(c1ccccc1)CN2 [NSC330770],-9.40
2,CCN(CC)CCCC(C)NC(=O)c1ccc2c(c1)C(=O)c1ccccc1C2=O.Cl (centres unmarked) [NSC331757],-61.61
3,CO[C@@H](/C(C)=C/C=C/C(C)=C/c1coc(C)n1)[C@@H](C)[C@@H]1C[C@H](O)[C@@]2(C)O[C@@H]2/C=C/[C@@H](C)[C@H]2C[C@H](CC(=O)O2)C[C@@H]2O[C@H]2C(=O)O1 [NSC332598],-143.77
4,COC(=O)NC1C(C)OC(OC2C/C=C(/C)C3C=CC4C(OC5CC(OC6CCC(OC7CC(O)C(OC8CCC(O)C(C)O8)C(C)O7)C(C)O6)C(OC(C)=O)C(C)O5)C(C)CC(C)C4C3(C)/C(O)=C3/C(=O)OC4(CC(C=O)=CC(O)C4/C=C\2C)C3=O)CC1(C)[N+](=O)[O-] (centres unmarked) [NSC333856],-2.71
5,Cc1c2ccnc(C(N)=O)c2c(C)c2c1[nH]c1ccccc12.Cl [NSC335142],-27.72
6,O=C1NC(=S)NC(=O)C1C(=O)Nc1ccccc1 [NSC336628],-66.49
7,O=C1c2ccccc2-c2c1c1ccccc1c(=O)n2Cc1ccccc1 [NSC337612],-26.65
8,C(=N\NC1=NCCN1)/c1c2ccccc2c(/C=N/NC2=NCCN2)c2ccccc12 [NSC337766],-53.76
9,CN(C)c1ccc2c(SCC(=O)OCC(=O)[C@@]3(O)CC[C@H]4[C@@H]5CCC6=CC(=O)C=C[C@]6(C)[C@H]5C(=O)C[C@@]43C)c3ccc(N(C)C)cc3nc2c1 [NSC337851],-16.37
10,Oc1cc2c3c(c1)c1cc4c(cc1c[n+]3CC2)OCO4.[Cl-] [NSC338259],-17.29
11,COc1nc(C(Cl)(Cl)Cl)c(Cl)c(OC)c1Cl [NSC338720],0.02
12,O=C(CCCN1CCC(C(O)c2ccc(F)cc2)CC1)c1ccc(F)cc1 (centres unmarked) [NSC343513],-0.97
13,NP(=O)(Oc1c2occc2cc2ccc(=O)oc12)N(CCCl)CCCl (centres unmarked) [NSC345081],-64.34
14,CC1Oc2cc3c(-c4c(O)cc(O)c5c(O)c6c(cc45)OC(C)C(C)C6=O)c(O)cc(O)c3c(O)c2C(=O)C1C (centres unmarked) [NSC345647],-176.19
15,O=[Se]([O-])[O-].[Na+].[Na+] [NSC347466],-3.84
16,O=C1N[C@@H]2C(=C[C@H](O)[C@@H](O)[C@H]2O)c2cc3c(cc21)OCO3 [NSC349155],-5.62
17,O=C1N[C@H]2[C@H](O)[C@H](O)[C@@H](O)[C@H](O)[C@@H]2c2cc3c(c(O)c21)OCO3 [NSC349156],-36.89
18,COC1=C(C)C(=O)C2=C(C1=O)C(CO)N1C(C#N)C3CC4C(C1C2N1CCOC41)N3C (centres unmarked) [NSC349644],-64.47
19,Cc1ccc(S(=O)(=O)ON=C2CC(c3ccccc3)N(C)C(c3ccccc3)C2)cc1 (centres unmarked) [NSC351306],-39.05
20,COc1cc(C(C)c2cc3c(cc2OCCO)OCO3)cc(OC)c1OC (centres unmarked) [NSC352876],-6.93
21,Nc1ncnc2c([C@@H]3O[C@H](CO)[C@@H](O)[C@H]3O)c[nH]c12 [NSC352890],-27.24
22,CCN(CC)CC.CCOc1ccc(NC(=O)N=C=[N-])cc1.[CH-]1CCCCC1.[CH-]1CCCCC1.[CH-]1CCCCC1.[Cl-].[Sn+4] [NSC353527],-42.92
23,C=Cc1cc(OC)c2c(c1)c(=O)oc1c2cc(OC)c2c(O)ccc(C3OC(C)C(O)C(C)(O)C3O)c21 (centres unmarked) [NSC354844],-68.14
24,NC(=O)C1=C[C@H]2[C@@H]3C=C[C@@]2(O)C(=O)O[C@@H]3O1 [NSC357683],-9.72

# Same assay, conditions: 20 μM compound; 10 mM pyruvate, 1 mM NADH; values below 0 = augmenters
row,Compound,MEAN CpLDH INHIBITION (%)
1,C/C(=N\NC(=S)N1CCC1)c1ccccn1 [NSC319726],-58.85
